# Source: US20240067632A1, “WEE1 Degrading Compounds and Uses Thereof” (Bristol-Myers Squibb Company, priority 2022, published 2024)
# Columns and labels:
# MKN45 cells = test: MKN45 cell proliferation assay (Cell-Titer-Glo, 120 h); type: cell-based; settings: for EC50: Homo sapiens, MKN-45, 120 h, Cell-Titer-Glo, growth inhibition, read-out: MKN45 Cell Prolif. 120 hr (EC50); for MKN45 Cell Prolif. 120 hr (Ymin-Obs): minimal percent of DMSO control observed in the concentrations tested
# Outline: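 Growth inhibition was read as blank-corrected Cell-Titer-Glo luminescence expressed as percent DMSO control after 120 h at 37 C, 400 cells/well. Compounds tested in triplicate as 10-point half-log series from 1 or 10 uM, 0.1% DMSO; four-parameter fit gave EC50, and lowest observed percent control was reported as Ymin-obs.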
# WEE1 = molecular target: T1, WEE1 (Homo sapiens, UniProt P30291+Q96SW2); test: WEE1-ePL degradation assay (LentiX-WEE1-ePL-GSPT1-ND cells, InCELL Hunter luminescence, 4 h); type: cell-based; settings: 293T-LentiX WEE1-ePL cells; for 293T-LentiX WEE1-ePL Degradation 4 hr (Ymin): lower limit of the fit (0 = luciferase inhibitor, Ymax = DMSO control); for DC50: read-out: 293T-LentiX WEE1-ePL Degradation 4 hr (EC50)
# T1 construct: C-terminal ePL-tagged (DiscoverX, Fremont, CA) full-length WEE1 expression construct; expressed in transfected cells; host or cells: LentiX-HEK293T (Invitrogen), lentiviral transduction; co-expressing GSPT1-GN (G576N, lacking the first 158 amino acids)
# Outline: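 First, compounds were pre-plated as 10-point, 3-fold dilutions (top 1 uM or 10 uM) with DMSO control; next, WEE1-ePL-expressing HEK293T cells were added and held 4 h at 37 °C; finally, InCELL Hunter reagent was applied for 30 min before luminescence reading. A 4PL fit gave EC50 and Ymin.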
SMILES,EC50 (MKN45 cells) [nM],MKN45 Cell Prolif. 120 hr (Ymin-Obs) (MKN45 cells),293T-LentiX WEE1-ePL Degradation 4 hr (Ymin) (WEE1),DC50 (WEE1) [nM]
"O=C1CCC(N2Cc3cc(O[C@H]4CCN(Cc5ccc6nc(N7CCC78COC8)ccc6c5)C4)ccc3C2=O)C(=O)N1 (stereo partly drawn) [3-(5-{[(3S)-1-[(2-{6-oxa-1-azaspiro[3.3]heptan-1-yl}quinolin-6-yl)methyl]pyrrolidin-3-yl]oxy}-1-oxo-2,3-dihydro-1H-isoindol-2-yl)piperidine-2,6-dione]",3.82,8.91,35,6.17
"O=C1CCC(N2Cc3cc(O[C@H]4CCN(Cc5ccc6nc(N7CCC78CCOCC8)ncc6c5)C4)ccc3C2=O)C(=O)N1 (stereo partly drawn) [3-(5-{[(3S)-1-[(2-{7-oxa-1-azaspiro[3.5]nonan-1-yl}quinazolin-6-yl)methyl]pyrrolidin-3-yl]oxy}-1-oxo-2,3-dihydro-1H-isoindol-2-yl)piperidine-2,6-dione]",12.6,13.59,37,11.4
"O=C1CCC(N2Cc3cc(O[C@H]4CCN(Cc5ccc6nc(N7CCC78CCOCC8)ccc6c5)C4)ccc3C2=O)C(=O)N1 (stereo partly drawn) [3-(5-{[(3S)-1-[(2-{7-oxa-1-azaspiro[3.5]nonan-1-yl}quinolin-6-yl)methyl]pyrrolidin-3-yl]oxy}-1-oxo-2,3-dihydro-1H-isoindol-2-yl)piperidine-2,6-dione]",3.7,7.36,33,6.05
"O=C1CCC(N2Cc3cc(O[C@H]4CCN(Cc5ccc6nc(N7CC8(CCOCC8)C7)ncc6c5)C4)ccc3C2=O)C(=O)N1 (stereo partly drawn) [3-(5-{[(3S)-1-[(2-{7-oxa-2-azaspiro[3.5]nonan-2-yl}quinazolin-6-yl)methyl]pyrrolidin-3-yl]oxy}-1-oxo-2,3-dihydro-1H-isoindol-2-yl)piperidine-2,6-dione]",10.2,9.958,35,16.6
"O=C1CCC(N2Cc3cc(O[C@H]4CCN(Cc5ccc6nc(N7CC8(CCOCC8)C7)ccc6c5)C4)ccc3C2=O)C(=O)N1 (stereo partly drawn) [3-(5-{[(3S)-1-[(2-{7-oxa-2-azaspiro[3.5]nonan-2-yl}quinolin-6-yl)methyl]pyrrolidin-3-yl]oxy}-1-oxo-2,3-dihydro-1H-isoindol-2-yl)piperidine-2,6-dione]",2.84,10.13,36,1.94
"O=C1CCC(N2Cc3cc(O[C@H]4CCN(Cc5ccc6nc(N7CCCC78CCOCC8)ncc6c5)C4)ccc3C2=O)C(=O)N1 (stereo partly drawn) [3-(5-{[(3S)-1-[(2-{8-oxa-1-azaspiro[4.5]decan-1-yl}quinazolin-6-yl)methyl]pyrrolidin-3-yl]oxy}-1-oxo-2,3-dihydro-1H-isoindol-2-yl)piperidine-2,6-dione]",14.1,20.87,47,18.1
"O=C1CCC(N2Cc3cc(O[C@H]4CCN(Cc5ccc6nc(N7CCCC78CCOCC8)ccc6c5)C4)ccc3C2=O)C(=O)N1 (stereo partly drawn) [3-(5-{[(3S)-1-[(2-{8-oxa-1-azaspiro[4.5]decan-1-yl}quinolin-6-yl)methyl]pyrrolidin-3-yl]oxy}-1-oxo-2,3-dihydro-1H-isoindol-2-yl)piperidine-2,6-dione]",15.5,20.2,47,11.3
"O=C1CCC(N2Cc3cc(O[C@H]4CCN(Cc5ccc6ncc(F)cc6c5F)C4)ccc3C2=O)C(=O)N1 (stereo partly drawn) [3-(5-{[(3S)-1-[(3,5-difluoroquinolin-6-yl)methyl]pyrrolidin-3-yl]oxy}-1-oxo-2,3-dihydro-1H-isoindol-2-yl)piperidine-2,6-dione]",38.3,12.86,28.96,8.71
"Cc1cnc2ccc(CN3CC[C@H](Oc4ccc5c(c4)CN(C4CCC(=O)NC4=O)C5=O)C3)c(C)c2c1 (stereo partly drawn) [3-(5-{[(3S)-1-[(3,5-dimethylquinolin-6-yl)methyl]pyrrolidin-3-yl]oxy}-1-oxo-2,3-dihydro-1H-isoindol-2-yl)piperidine-2,6-dione]",93.8,53.11,39.05,7.92
"Cc1nc2ccc(CN3CC[C@H](Oc4ccc5c(c4)CN(C4CCC(=O)NC4=O)C5=O)C3)cc2cc1F (stereo partly drawn) [3-(5-{[(3S)-1-[(3-fluoro-2-methylquinolin-6-yl)methyl]pyrrolidin-3-yl]oxy}-1-oxo-2,3-dihydro-1H-isoindol-2-yl)piperidine-2,6-dione]",53.6,18.86,33.29,6.95
"O=C1CCC(N2Cc3cc(O[C@H]4CCN(Cc5ccc6ncc(F)cc6c5)C4)ccc3C2=O)C(=O)N1 (stereo partly drawn) [3-(5-{[(3S)-1-[(3-fluoroquinolin-6-yl)methyl]pyrrolidin-3-yl]oxy}-1-oxo-2,3-dihydro-1H-isoindol-2-yl)piperidine-2,6-dione]",75.7,19.555,34.66,8.72
"COc1cnc2ccc(CN3CC[C@H](Oc4ccc5c(c4)CN(C4CCC(=O)NC4=O)C5=O)C3)cc2c1 (stereo partly drawn) [3-(5-{[(3S)-1-[(3-methoxyquinolin-6-yl)methyl]pyrrolidin-3-yl]oxy}-1-oxo-2,3-dihydro-1H-isoindol-2-yl)piperidine-2,6-dione]",19.1,12.81,34,3.25
"Cc1cnc2ccc(CN3CC[C@H](Oc4ccc5c(c4)CN(C4CCC(=O)NC4=O)C5=O)C3)cc2c1 (stereo partly drawn) [3-(5-{[(3S)-1-[(3-methylquinolin-6-yl)methyl]pyrrolidin-3-yl]oxy}-1-oxo-2,3-dihydro-1H-isoindol-2-yl)piperidine-2,6-dione]",63.5,21.51,38.21,4.47
"Cc1cncc(CN2CC[C@H](Oc3ccc4c(c3)CN(C3CCC(=O)NC3=O)C4=O)C2)c1C (stereo partly drawn) [3-(5-{[(3S)-1-[(4,5-dimethylpyridin-3-yl)methyl]pyrrolidin-3-yl]oxy}-1-oxo-2,3-dihydro-1H-isoindol-2-yl)piperidine-2,6-dione]",407,62.92,37.63,40.7
"Cc1cc(Cl)c2cc(CN3CC[C@H](Oc4ccc5c(c4)CN(C4CCC(=O)NC4=O)C5=O)C3)ccc2n1 (stereo partly drawn) [3-(5-{[(3S)-1-[(4-chloro-2-methylquinolin-6-yl)methyl]pyrrolidin-3-yl]oxy}-1-oxo-2,3-dihydro-1H-isoindol-2-yl)piperidine-2,6-dione]",392,44.06,32.06,4.29
"Cc1cc(F)c2cc(CN3CC[C@H](Oc4ccc5c(c4)CN(C4CCC(=O)NC4=O)C5=O)C3)ccc2n1 (stereo partly drawn) [3-(5-{[(3S)-1-[(4-fluoro-2-methylquinolin-6-yl)methyl]pyrrolidin-3-yl]oxy}-1-oxo-2,3-dihydro-1H-isoindol-2-yl)piperidine-2,6-dione]",≥ 10000,24.82,69.445,22.7
"Cc1cc(O)c2cc(CN3CC[C@H](Oc4ccc5c(c4)CN(C4CCC(=O)NC4=O)C5=O)C3)ccc2n1 (stereo partly drawn) [3-(5-{[(3S)-1-[(4-hydroxy-2-methylquinolin-6-yl)methyl]pyrrolidin-3-yl]oxy}-1-oxo-2,3-dihydro-1H-isoindol-2-yl)piperidine-2,6-dione]",> 10000,87.83,73,528
"COc1cc(C)nc2ccc(CN3CC[C@H](Oc4ccc5c(c4)CN(C4CCC(=O)NC4=O)C5=O)C3)cc12 (stereo partly drawn) [3-(5-{[(3S)-1-[(4-methoxy-2-methylquinolin-6-yl)methyl]pyrrolidin-3-yl]oxy}-1-oxo-2,3-dihydro-1H-isoindol-2-yl)piperidine-2,6-dione]",1500,47.92,44.38,26.8
"CN1CC(=O)Oc2cc(CN3CC[C@H](Oc4ccc5c(c4)CN(C4CCC(=O)NC4=O)C5=O)C3)ccc21 (stereo partly drawn) [3-(5-{[(3S)-1-[(4-methyl-2-oxo-3,4-dihydro-2H-1,4-benzoxazin-7-yl)methyl]pyrrolidin-3-yl]oxy}-1-oxo-2,3-dihydro-1H-isoindol-2-yl)piperidine-2,6-dione]",> 10000,91.915,52,24.2
"CN1C(=O)COc2ccc(CN3CC[C@H](Oc4ccc5c(c4)CN(C4CCC(=O)NC4=O)C5=O)C3)cc21 (stereo partly drawn) [3-(5-{[(3S)-1-[(4-methyl-3-oxo-3,4-dihydro-2H-1,4-benzoxazin-6-yl)methyl]pyrrolidin-3-yl]oxy}-1-oxo-2,3-dihydro-1H-isoindol-2-yl)piperidine-2,6-dione]",> 10000,84.725,56,47.9
